The subject of this test is HepG2 PCSK9 mRNA, RT-qPCR, 24 h. Kind of test: cholesterol-dependence of PCSK9 transcript levels – cell-based, HepG2, RT-PCR, cherry-picked dose, mechanism study for Trib1 inducer project, late-stage follow-up (AID 1053162). The settings on record: stronger effect = higher value.

Take `CN1C(=O)c2cc(NC(=O)c3ccc(C(F)(F)F)cc3)ccc2OC[C@@H]2O[C@H](CC(=O)NC3Cc4ccccc4C3)CC[C@@H]21`: the fold induction was 2.5.
